Experimental data taken from patent US8741897B2, “Glucocorticoid mimetics, methods of making them, pharmaceutical compositions and uses thereof” (Boehringer Ingelheim Pharmaceuticals Inc., priority 2003, dated 2014).

Legend:
[1] = molecular target: T1, human glucocorticoid receptor (GR) complex (Homo sapiens, UniProt P04150); assay: Glucocorticoid receptor competitive binding assay (fluorescence polarization, TAMRA-labeled dexamethasone probe); settings: compounds of Formula (IA)
T1 construct: made in house; host or cells: insect expression system (baculovirus lysate)
T1 sequence (P04150 1-777): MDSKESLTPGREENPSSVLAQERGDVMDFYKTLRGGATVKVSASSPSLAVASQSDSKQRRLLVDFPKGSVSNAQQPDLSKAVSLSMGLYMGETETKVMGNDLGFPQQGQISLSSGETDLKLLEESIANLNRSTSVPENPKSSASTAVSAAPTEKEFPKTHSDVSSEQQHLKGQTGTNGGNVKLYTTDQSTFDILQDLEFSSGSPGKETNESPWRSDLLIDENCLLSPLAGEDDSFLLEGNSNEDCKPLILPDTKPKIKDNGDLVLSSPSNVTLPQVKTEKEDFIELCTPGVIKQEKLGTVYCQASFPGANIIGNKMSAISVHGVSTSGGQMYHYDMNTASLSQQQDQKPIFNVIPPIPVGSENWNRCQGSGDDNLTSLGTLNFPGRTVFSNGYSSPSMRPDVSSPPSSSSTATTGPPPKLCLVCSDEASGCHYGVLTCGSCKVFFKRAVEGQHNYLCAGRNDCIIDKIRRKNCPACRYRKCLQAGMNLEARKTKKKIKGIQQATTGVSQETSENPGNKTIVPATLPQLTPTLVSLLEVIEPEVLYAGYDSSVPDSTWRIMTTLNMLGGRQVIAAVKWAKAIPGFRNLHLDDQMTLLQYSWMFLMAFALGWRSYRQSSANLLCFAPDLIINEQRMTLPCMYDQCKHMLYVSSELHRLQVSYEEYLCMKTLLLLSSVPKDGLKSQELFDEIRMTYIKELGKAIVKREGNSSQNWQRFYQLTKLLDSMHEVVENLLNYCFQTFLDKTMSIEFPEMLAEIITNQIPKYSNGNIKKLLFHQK
How it was run: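 Fluorescence-polarization competition against 15 nM TAMRA-dexamethasone (stock added to the mix) for human GR complex from baculovirus lysate diluted 1:170. Buffer: 10 mM TES, 50 mM KCl, 20 mM Na2MoO4, 1.5 mM EDTA, 0.04% CHAPS, 10% glycerol, 1 mM DTT, pH 7.4. IC50 from 4-parameter logistic fit.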

[2] = tested on: glucocorticoid receptor function; assay: one or more of the above assays (GR binding and glucocorticoid receptor cell assays: aromatase, IL-6, TAT, MMTV-Luc, IL-8, ICAM-Luc); type: cell-based; settings: assay not specified per compound

Compound	activity in the GR binding assay [1]	activity as agonists of the glucocorticoid receptor function in one or more of the above assays [2]
Cc1cc2c(c(C(C)(C)CC(O)(Cc3cc4ccncc4[nH]3)C(F)(F)F)c1)OCC2 (centres unmarked) [1,1,1-Trifluoro-4-methyl-4-(5-methyl-2,3-dihydrobenzofuran-7-yl)-2-(1H-pyrrolo[2,3-c]pyridin-2-ylmethyl)pentan-2-ol]	potent activity	potent agonists
Cc1cc2c(c(C(C)(C)CC(O)(Cc3cc4cnccc4[nH]3)C(F)(F)F)c1)OCC2 (centres unmarked) [1,1,1-Trifluoro-4-methyl-4-(5-methyl-2,3-dihydrobenzofuran-7-yl)-2-(1H-pyrrolo[3,2-c]pyridin-2-ylmethyl)pentan-2-ol]	potent activity	potent agonists
CCC(C)(CC(O)(Cc1ccnc2ccccc12)C(F)(F)F)c1ccccc1 (centres unmarked) [1,1,1-Trifluoro-4-methyl-4-phenyl-2-quinolin-4-ylmethylhexan-2-ol]	potent activity	potent agonists
COc1ccc(F)cc1C(C)(C)CC(O)(Cc1cc2cnccc2[nH]1)C(F)F (centres unmarked) [1,1-Difluoro-4-(5-fluoro-2-methoxyphenyl)-4-methyl-2-(1H-pyrrolo[3,2-c]pyridin-2-ylmethyl)pentan-2-ol]	potent activity	potent agonists
CC(C)(CC(O)(Cc1cc(Cl)nc(Cl)c1C#N)C(F)(F)F)c1cc(F)ccc1O (centres unmarked) [2,6-Dichloro-4-[4-(5-fluoro-2-hydroxyphenyl)-2-hydroxy-4-methyl-2-trifluoromethylpentyl]nicotinonitrile]	potent activity	potent agonists
COc1ccc(F)cc1C(C)(C)CC(O)(Cc1cc(Cl)nc(Cl)c1C#N)C(F)(F)F (centres unmarked) [2,6-Dichloro-4-[4-(5-fluoro-2-methoxyphenyl)-2-hydroxy-4-methyl-2-trifluoromethylpentyl]nicotinonitrile]	potent activity	potent agonists
COc1ccc(F)cc1C(C)(C)CC(O)(Cc1cc2c(C)nc(C)nc2[nH]1)C(F)(F)F (centres unmarked) [2-(2,4-Dimethyl-7H-pyrrolo[2,3-d]pyrimidin-6-ylmethyl)-1,1,1-trifluoro-4-(5-fluoro-2-methoxyphenyl)-4-methylpentan-2-ol]	potent activity	potent agonists
Cc1cc(CC(O)(CC(C)(C)c2cccc(F)c2)C(F)(F)F)cc(C)n1 (centres unmarked) [2-(2,6-Dimethylpyridin-4-ylmethyl)-1,1,1-trifluoro-4-(3-fluorophenyl)-4-methylpentan-2-ol]	potent activity	potent agonists
COc1cc(F)ccc1C(C)(C)CC(O)(Cc1cc(C)nc(C)c1)C(F)(F)F (centres unmarked) [2-(2,6-Dimethylpyridin-4-ylmethyl)-1,1,1-trifluoro-4-(4-fluoro-2-methoxyphenyl)-4-methylpentan-2-ol]	potent activity	potent agonists
Cc1cc(CC(O)(CC(C)(C)c2ccc(F)cc2)C(F)(F)F)cc(C)n1 (centres unmarked) [2-(2,6-Dimethylpyridin-4-ylmethyl)-1,1,1-trifluoro-4-(4-fluorophenyl)-4-methylpentan-2-ol]	potent activity	potent agonists
Cc1cc(CC(O)(CC(C)(C)c2cc(F)ccc2C)C(F)(F)F)cc(C)n1 (centres unmarked) [2-(2,6-Dimethylpyridin-4-ylmethyl)-1,1,1-trifluoro-4-(5-fluoro-2-methylphenyl)-4-methylpentan-2-ol]	potent activity	potent agonists
Cc1cccc(C(C)(C)CC(O)(Cc2cc(C)nc(C)c2)C(F)(F)F)c1 (centres unmarked) [2-(2,6-Dimethylpyridin-4-ylmethyl)-1,1,1-trifluoro-4-methyl-4-m-tolylpentan-2-ol]	potent activity	potent agonists
COc1ccc(F)cc1C(C)(C)CC(O)(Cc1cc2c(Cl)nc(N)nc2[nH]1)C(F)(F)F (centres unmarked) [2-(2-Amino-4-chloro-7H-pyrrolo[2,3-d]pyrimidin-6-ylmethyl)-1,1,1-trifluoro-4-(5-fluoro-2-methoxyphenyl)-4-methylpentan-2-ol]	potent activity	potent agonists
COc1ccc(F)cc1C(C)(C)CC(O)(Cc1[nH]c2ccncc2c1CN(C)C)C(F)(F)F (centres unmarked) [2-(3-Dimethylaminomethyl-1H-pyrrolo[3,2-c]pyridin-2-ylmethyl)-1,1,1-trifluoro-4-(5-fluoro-2-methoxyphenyl)-4-methylpentan-2-ol]	potent activity	potent agonists
COc1ccc(F)cc1C(C)(C)CC(O)(Cc1cc2c(C)nc(C)cc2[nH]1)C(F)(F)F (centres unmarked) [2-(4,6-Dimethyl-1H-pyrrolo[3,2-c]pyridin-2-ylmethyl)-1,1,1-trifluoro-4-(5-fluoro-2-methoxyphenyl)-4-methylpentan-2-ol]	potent activity	potent agonists
Cc1cc2[nH]c(CC(O)(CC(C)(C)c3cc(F)ccc3C)C(F)(F)F)cc2c(C)n1 (centres unmarked) [2-(4,6-Dimethyl-1H-pyrrolo[3,2-c]pyridin-2-ylmethyl)-1,1,1-trifluoro-4-(5-fluoro-2-methylphenyl)-4-methylpentan-2-ol]	potent activity	potent agonists
Cc1cc(C#N)cc2[nH]c(CC(O)(CC(C)(C)c3cccc4c3OCO4)C(F)(F)F)cc12 (centres unmarked) [2-(4-Benzo[1,3]dioxol-4-yl-2-hydroxy-4-methyl-2-trifluoromethylpentyl)-4-methyl-1H-indole-6-carbonitrile]	potent activity	potent agonists
COc1ccc(F)cc1C(C)(C)CC(O)(Cc1cc2cc(Cl)nc(Cl)c2[nH]1)C(F)(F)F (centres unmarked) [2-(5,7-Dichloro-1H-pyrrolo[2,3-c]pyridin-2-ylmethyl)-1,1,1-trifluoro-4-(5-fluoro-2-methoxyphenyl)-4-methylpentan-2-ol]	potent activity	potent agonists
Cc1ccc(F)cc1C(C)(C)CC(O)(Cc1cc2cc(Cl)ncc2[nH]1)C(F)(F)F (centres unmarked) [2-(5-Chloro-1H-pyrrolo[2,3-c]pyridin-2-ylmethyl)-1,1,1-trifluoro-4-(5-fluoro-2-methylphenyl)-4-methylpentan-2-ol]	potent activity	potent agonists
Cc1ccc(F)cc1C(C)(C)CC(O)(Cc1cc2cc(N(C)C)ncc2[nH]1)C(F)(F)F (centres unmarked) [2-(5-Dimethylamino-1H-pyrrolo[2,3-c]pyridin-2-ylmethyl)-1,1,1-trifluoro-4-(5-fluoro-2-methylphenyl)-4-methylpentan-2-ol]	potent activity	potent agonists
COc1ccc(F)cc1C(C)(C)CC(O)(Cc1ccnc2c(C)cc(C)cc12)C(F)(F)F (centres unmarked) [2-(6,8-Dimethylquinolin-4-ylmethyl)-1,1,1-trifluoro-4-(5-fluoro-2-methoxyphenyl)-4-methylpentan-2-ol]	potent activity	potent agonists
Cc1cc(C)c(O)c(C(C)(C)CC(O)(Cc2[nH]c3ccccc3c2C#N)C(F)(F)F)c1 (centres unmarked) [2-[2-Hydroxy-4-(2-hydroxy-3,5-dimethylphenyl)-4-methyl-2-trifluoromethylpentyl]-1H-indole-3-carbonitrile]	potent activity	potent agonists
